Key:
[1] = Cytotoxicity against porcine fetal kidney cells incubated for 48 hrs by MTT assay; type: cell-based; conditions: Sus scrofa, Fetal kidney cell
[2] = molecular target: Cholinesterase (Homo sapiens, UniProt P06276)
Description: Inhibition of BuChE (unknown origin) preincubated for 30 mins followed by substrate addition acetylthiocholineiodide measured after 40 mins by Ellman's method

[3] = Cytotoxicity against goat fetal fibroblast cells incubated for 48 hrs by MTT assay; type: cell-based, Fetal fibroblast cell; conditions: Capra hircus
[4] = molecular target: Acetylcholinesterase (Homo sapiens, UniProt P22303)
Description: Inhibition of AChE (unknown origin) preincubated for 30 mins followed by substrate addition acetylthiocholineiodide measured after 40 mins by Ellman's method

[5] = tested on: N2a; test: Cytotoxicity against mouse N2a cells incubated for 48 hrs by MTT assay; type: cell-based

Cholinesterase, sequence (P06276 whole entry): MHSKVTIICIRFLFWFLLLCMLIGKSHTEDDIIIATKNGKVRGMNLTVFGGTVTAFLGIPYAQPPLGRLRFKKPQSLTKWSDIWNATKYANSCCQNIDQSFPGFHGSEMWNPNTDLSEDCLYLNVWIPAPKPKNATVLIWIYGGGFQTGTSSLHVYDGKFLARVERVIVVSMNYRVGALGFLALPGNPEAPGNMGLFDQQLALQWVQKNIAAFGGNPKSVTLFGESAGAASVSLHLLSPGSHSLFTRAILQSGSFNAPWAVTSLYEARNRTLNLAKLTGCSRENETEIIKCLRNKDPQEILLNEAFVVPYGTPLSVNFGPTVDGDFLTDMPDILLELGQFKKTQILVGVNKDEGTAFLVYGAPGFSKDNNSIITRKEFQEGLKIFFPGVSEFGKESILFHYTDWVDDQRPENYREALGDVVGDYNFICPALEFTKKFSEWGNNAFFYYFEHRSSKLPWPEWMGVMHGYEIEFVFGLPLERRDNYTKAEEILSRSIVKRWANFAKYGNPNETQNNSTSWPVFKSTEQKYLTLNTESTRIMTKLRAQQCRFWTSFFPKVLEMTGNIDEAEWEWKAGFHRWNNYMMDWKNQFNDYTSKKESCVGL
Acetylcholinesterase, sequence (P22303 whole entry): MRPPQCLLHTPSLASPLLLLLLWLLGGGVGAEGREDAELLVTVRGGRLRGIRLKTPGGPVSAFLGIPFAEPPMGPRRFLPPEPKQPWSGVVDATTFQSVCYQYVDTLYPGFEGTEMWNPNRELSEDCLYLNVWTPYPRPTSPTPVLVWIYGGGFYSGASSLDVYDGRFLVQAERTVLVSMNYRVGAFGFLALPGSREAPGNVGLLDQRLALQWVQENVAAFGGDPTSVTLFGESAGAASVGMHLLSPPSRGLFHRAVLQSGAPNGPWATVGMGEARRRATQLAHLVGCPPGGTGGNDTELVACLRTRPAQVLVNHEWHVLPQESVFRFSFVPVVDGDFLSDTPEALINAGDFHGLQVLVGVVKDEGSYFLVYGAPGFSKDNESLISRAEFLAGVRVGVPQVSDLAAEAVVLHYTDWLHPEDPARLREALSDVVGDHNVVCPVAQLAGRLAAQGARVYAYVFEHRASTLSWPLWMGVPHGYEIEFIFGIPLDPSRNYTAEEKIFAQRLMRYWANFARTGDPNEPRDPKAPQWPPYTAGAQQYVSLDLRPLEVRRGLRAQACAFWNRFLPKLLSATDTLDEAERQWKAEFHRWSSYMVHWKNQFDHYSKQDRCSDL

| SMILES | IC50 [1] | IC50 [2] | IC50 [3] | IC50 [4] | IC50 [5] |
| --- | --- | --- | --- | --- | --- |
| COc1cccc2c1C=[N+](c1ccc(Br)cc1Br)CC2 | 6.03 µM | 116 µM | 6.13 µM | 3.72 µM | 4.26 µM |
| COc1cccc2cc[n+](-c3ccccc3I)cc12 | – | 36.9 µM | – | 2.06 µM | – |
| COc1cccc2c1C=[N+](c1ccc(Br)cc1)CC2 | 19.2 µM | 20.7 µM | 20.6 µM | 0.28 µM | 20.3 µM |
| COc1cccc2cc[n+](-c3ccccc3C#N)cc12 | – | 59.4 µM | – | 1.75 µM | – |
| COc1cccc2cc[n+](-c3ccc(Br)cc3)cc12 | 19.8 µM | 21.6 µM | > 50 µM | 0.19 µM | 20.8 µM |
| COc1cccc2c1C=[N+](c1cc(Cl)cc(Cl)c1)CC2 | – | – | – | > 10 µM | – |
| COc1cccc2c1C=[N+](c1ccc(Br)cc1F)CC2 | – | 69.3 µM | – | 1.29 µM | – |
| COc1cccc([N+]2=Cc3c(cccc3OC)CC2)c1 | – | 77.3 µM | – | 5.23 µM | – |
| COc1cccc2cc[n+](-c3cccc(F)c3)cc12 | – | > 250 µM | – | 9.13 µM | – |
| COc1cccc2c1C=[N+](c1ccccc1C#N)CC2 | – | – | – | > 10 µM | – |
| COc1cccc2cc[n+](-c3cccc(I)c3)cc12 | – | – | – | > 10 µM | – |
| COc1cccc2c1C=[N+](c1ccc(C(F)(F)F)cc1)CC2 | – | 221 µM | – | 1.94 µM | – |
| COc1cccc2c1C=[N+](c1cccc(C#N)c1)CC2 | – | 110 µM | – | 5.13 µM | – |
| COc1cccc2cc[n+](-c3ccccc3C(F)(F)F)cc12 | – | – | – | > 10 µM | – |
| COc1cccc2cc[n+](-c3ccc(F)cc3)cc12 | – | 143 µM | – | 0.67 µM | – |
| COc1cccc2c1C=[N+](c1cccc(Br)c1)CC2 | – | – | – | > 10 µM | – |
| COc1cccc2cc[n+](-c3cccc(C(F)(F)F)c3)cc12 | – | – | – | > 10 µM | – |
| COc1cccc2cc[n+](-c3cccc(Cl)c3)cc12 | – | 36.4 µM | – | 9.45 µM | – |
| COc1cccc2cc[n+](-c3cccc(C)c3)cc12 | – | 30.6 µM | – | 2.21 µM | – |
| COc1cccc2c1C=[N+](c1ccc(I)cc1)CC2 | – | 58.1 µM | – | 1.01 µM | – |
| COc1cccc2cc[n+](-c3cc(Cl)cc(Cl)c3)cc12 | – | – | – | > 10 µM | – |
| COc1ccccc1[N+]1=Cc2c(cccc2OC)CC1 | – | – | – | > 10 µM | – |

| SMILES | IC50 [1] | IC50 [2] | IC50 [3] | IC50 [4] | IC50 [5] |
| --- | --- | --- | --- | --- | --- |
| COc1cccc2c1C=[N+](c1cccc(Cl)c1)CC2 | – | – | – | > 10 µM | – |
| COc1cccc2c1C=[N+](c1c(F)cccc1F)CC2 | – | 105 µM | – | 1.29 µM | – |
| COc1cccc2c1C=[N+](c1ccc(Cl)cc1Cl)CC2 | – | 90.5 µM | – | 1.04 µM | – |
| COc1ccc([N+]2=Cc3c(cccc3OC)CC2)cc1 | 23.8 µM | 113 µM | 27.3 µM | 1.04 µM | 26.6 µM |
| COc1cccc2cc[n+](-c3ccc(C(F)(F)F)cc3)cc12 | – | 33.5 µM | – | 0.69 µM | – |
| COc1cccc2cc[n+](-c3ccc(C#N)cc3)cc12 | – | – | – | > 10 µM | – |
| Brc1ccc([N+]2=Cc3ccccc3CC2)cc1 | – | 63.7 µM | – | 10.5 µM | – |
| COc1cccc2c1C=[N+](c1ccc(C#N)cc1)CC2 | – | – | – | > 10 µM | – |
| COc1cccc2c1C=[N+](c1cccc(I)c1)CC2 | – | – | – | > 10 µM | – |
| COc1cccc2c1C=[N+](c1ccc(I)cc1F)CC2 | – | 128 µM | – | 1.06 µM | – |
| COc1ccc(-[n+]2ccc3cccc(OC)c3c2)cc1 | > 50 µM | 3.84 µM | > 50 µM | 0.14 µM | > 50 µM |
| COc1cccc2c1C=[N+](c1ccccc1Cl)CC2 | – | 190 µM | – | > 10 µM | – |
| COc1cccc2cc[n+](-c3ccc(C)cc3)cc12 | – | > 250 µM | – | 1.08 µM | – |
| COc1ccccc1-[n+]1ccc2cccc(OC)c2c1 | – | – | – | > 10 µM | – |
| COc1cccc2c1C=[N+](c1ccc(F)cc1)CC2 | – | 113 µM | – | 1.99 µM | – |
| COc1cccc2c1C=[N+](c1ccccc1)CC2 | – | 35.4 µM | – | 1.62 µM | – |
| COc1cccc2c1C=[N+](c1ccccc1C)CC2 | – | 133 µM | – | 3.07 µM | – |
| COc1cccc2c1C=[N+](c1ccccc1I)CC2 | – | 28.9 µM | – | 1.79 µM | – |
| COc1cccc2cc[n+](-c3ccccc3F)cc12 | – | 80.9 µM | – | 2.55 µM | – |
| COc1cccc2c1C=[N+](c1ccc(Cl)cc1)CC2 | – | 62.1 µM | – | 0.32 µM | – |
| COc1cccc2c1C=[N+](c1cccc(F)c1)CC2 | – | – | – | > 10 µM | – |
| COc1cccc2c1C=[N+](c1ccccc1F)CC2 | – | 75 µM | – | 2.94 µM | – |

| SMILES | IC50 [1] | IC50 [2] | IC50 [3] | IC50 [4] | IC50 [5] |
| --- | --- | --- | --- | --- | --- |
| COc1cccc2cc[n+](-c3ccc(Cl)cc3)cc12 | – | 104 µM | – | 0.17 µM | – |
| COc1cccc2c1C=[N+](c1ccc(C)cc1)CC2 | – | 47.1 µM | – | 0.53 µM | – |
| COc1cccc2cc[n+](-c3ccccc3C)cc12 | – | 243 µM | – | 2.89 µM | – |
| C[n+]1cc2c3c(ccc2c2ccc4cc5c(cc4c21)OCO5)OCO3 | – | 7.08 µM | – | 1.22 µM | – |
| COc1cccc2cc[n+](-c3ccccc3Cl)cc12 | – | 67.2 µM | – | 5.33 µM | – |
| COc1cccc2c1C=[N+](c1ccccc1C(F)(F)F)CC2 | – | – | – | > 10 µM | – |
| COc1cccc2cc[n+](-c3cccc(Br)c3)cc12 | – | – | – | > 10 µM | – |
| COc1cccc2c1C=[N+](c1cccc(C)c1)CC2 | – | 35.9 µM | – | 2.89 µM | – |
| COc1cccc2cc[n+](-c3cccc(C#N)c3)cc12 | – | > 250 µM | – | 3.41 µM | – |
| Brc1ccc(-[n+]2ccc3ccccc3c2)cc1 | – | 130 µM | – | 2.39 µM | – |
| COc1cccc2cc[n+](-c3ccccc3)cc12 | – | 80.3 µM | – | 1.42 µM | – |
| COc1cccc2cc[n+](-c3ccc(I)cc3)cc12 | – | 36.1 µM | – | 0.72 µM | – |
| COc1cccc(-[n+]2ccc3cccc(OC)c3c2)c1 | – | 98.3 µM | – | 6.9 µM | – |
| COc1cccc2cc[n+](-c3c(F)cccc3F)cc12 | – | 48.4 µM | – | 2.7 µM | – |
| COc1ccc2c(c[n+](C)c3c4cc5c(cc4ccc23)OCO5)c1OC [CHELERYTHRINE] | – | 8.58 µM | – | 1.45 µM | – |
| COc1cccc2cc[n+](-c3ccc(I)cc3F)cc12 | – | 89.8 µM | – | 1.23 µM | – |
| COc1cccc2cc[n+](-c3ccc(Br)cc3F)cc12 | – | 196 µM | – | 0.9 µM | – |
| COc1cccc2cc[n+](-c3ccc(Br)cc3Br)cc12 | > 50 µM | 131 µM | > 50 µM | 0.57 µM | > 50 µM |
| COc1cccc2cc[n+](-c3ccccc3Br)cc12 | – | 89.5 µM | – | 5.23 µM | – |
| COc1cccc2c1C=[N+](c1ccccc1Br)CC2 | – | 27.2 µM | – | 1.5 µM | – |
| COc1cccc2c1C=[N+](c1cccc(C(F)(F)F)c1)CC2 | – | – | – | > 10 µM | – |
| COc1cccc2cc[n+](-c3ccc(Cl)cc3Cl)cc12 | – | 232 µM | – | 3.42 µM | – |

— ChEMBL document CHEMBL4765338, “Simple analogues of natural product chelerythrine: Discovery of a novel anticholinesterase 2-phenylisoquinolin-2-ium scaffold with excellent potency against acetylcholinesterase” (Eur J Med Chem, 2020)
